According to paper PMC8653682, “Anti-Helicobacter pylori Compounds from Oliveria decumbens Vent. through Urease Inhibitory In-vitro and In-silico Studies” (Iranian Journal of Pharmaceutical Research : IJPR, 2021):
Converted amounts (≈) assume the structure as drawn. Like-named read-outs stand apart in the source and are kept apart here.

Columns and labels:
[1] = test system: Helicobacter pylori strain RIGLD-HC180; test: Anti-Helicobacter pylori activity by agar dilution method; format: cell-based; conditions: RIGLDHC180, 72 h, tested 50 to 2000 μg/mL, read-out: MIC for the growth of Helicobacter pylori
Description: Anti-Helicobacter pylori activity of the samples was investigated by an agar dilution method according to our previous study ([17]). […] The Agar dilution method has been standardized previously as an appropriate method to determine minimum inhibitory concentrations (MIC) of water-insoluble and colored plant extracts. […] Growth control plates were included in each experiment. […] All the experiments were performed in triplicate. Plates, including amoxicillin, were used as a positive control ([17]).

Jack bean urease = target: T1, Jack bean urease (Canavalia ensiformis, UniProt P07374); test: biochemical; format: biochemical
T1 construct: purchased Sigma-Aldrich
T1 sequence (P07374 whole entry, looked up): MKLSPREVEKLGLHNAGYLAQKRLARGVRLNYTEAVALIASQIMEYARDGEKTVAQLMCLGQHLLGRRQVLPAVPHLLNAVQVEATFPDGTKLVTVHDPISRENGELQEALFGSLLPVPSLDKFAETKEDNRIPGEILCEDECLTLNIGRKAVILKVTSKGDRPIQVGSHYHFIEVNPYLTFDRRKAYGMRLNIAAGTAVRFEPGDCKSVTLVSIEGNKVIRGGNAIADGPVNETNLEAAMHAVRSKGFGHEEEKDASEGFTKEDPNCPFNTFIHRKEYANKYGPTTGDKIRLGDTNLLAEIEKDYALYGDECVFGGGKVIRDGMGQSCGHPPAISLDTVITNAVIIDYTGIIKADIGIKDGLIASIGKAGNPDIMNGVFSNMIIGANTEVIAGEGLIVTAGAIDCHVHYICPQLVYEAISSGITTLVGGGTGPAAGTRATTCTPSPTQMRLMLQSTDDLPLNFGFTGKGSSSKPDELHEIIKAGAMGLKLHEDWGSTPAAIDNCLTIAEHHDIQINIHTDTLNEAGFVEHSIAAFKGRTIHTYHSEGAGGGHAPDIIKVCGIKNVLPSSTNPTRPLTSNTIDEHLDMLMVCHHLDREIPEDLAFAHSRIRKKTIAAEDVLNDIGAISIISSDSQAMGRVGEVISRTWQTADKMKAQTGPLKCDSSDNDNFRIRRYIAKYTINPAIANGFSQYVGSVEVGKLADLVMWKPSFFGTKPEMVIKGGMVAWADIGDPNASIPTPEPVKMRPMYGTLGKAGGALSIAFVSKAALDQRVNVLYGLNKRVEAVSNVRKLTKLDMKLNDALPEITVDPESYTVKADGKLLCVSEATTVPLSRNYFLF
Description: Urease inhibitory activity was evaluated based on Tanaka et al. report ([18]). Jack bean urease (Sigma-Aldrich, Germany) was used as a surrogate for H. pylori urease. Each well of a 96-well plate contained 25 μL jack bean urease (6U, Sigma-Aldrich) and 25 μL different concentrations of tested materials that were prepared in phosphate buffer (PBS, pH 6.8 ) and DMSO 1% as a co-solvent. After 30 min incubation at room temperature, 200 μL of a stock solution composed of PBS (100 mM), urea (150 mM), and phenol red were added to each well. The absorbance changes were measured at 570 nm by a microplate reader. Hydroxyurea was used as the positive control ([18]).

bacteria = test system: bacteria; design: method as in earlier work; conditions: combination with norfloxacin, ofloxacin and ciprofloxacin; ref 42 (Falcão‐Silva et al.); cited from earlier work
[2] = test system: Escherichia coli ATCC 8739; test: Antibacterial activity by disc diffusion method, E. coli; format: cell-based; conditions: extract/fractions 500 µg/disc, ciprofloxacin 5 µg/disc, penicillin 10 µg/disc
Description: (§1) Briefly, overnight cultures of bacteria were used to prepare a bacterial inoculum in sterile normal saline. The bacterial inoculum was standardized to the turbidity of 0.5 McFarland (the density equivalent to 1.5 × 10^8 cfu/mL). The surface of Mueller-Hinton (MH) agar plates was covered by 100 µL of diluted bacterial suspension containing 5 ×10^5 cfu. Different concentrations of the plant extract or fraction were prepared. Sterile blank discs (6.4 mm diameter) containing different concentrations of the plant extract or fractions (15 μL) were placed on the agar plates. The mean inhibition zone diameter was measured after overnight incubation at 37 °C.

[3] = test system: Staphylococcus epidermidis ATCC 12229; test: Antibacterial activity by disc diffusion method, S. epidermidis; format: cell-based; conditions: extract/fractions 500 µg/disc, ciprofloxacin 5 µg/disc, penicillin 10 µg/disc
Description: as §1

[4] = test system: Staphylococcus aureus ATCC 6538; test: Antibacterial activity by disc diffusion method, S. aureus; format: cell-based; conditions: extract/fractions 500 µg/disc, ciprofloxacin 5 µg/disc, penicillin 10 µg/disc
Description: as §1

CC1(C)S[C@@H]2[C@H](NC(=O)[C@H](N)c3ccc(O)cc3)C(=O)N2[C@H]1C(=O)O [Amoxicillin, amoxicillin]
MIC [1]: 0.5 µg/mL (≈ 1.37 µM)

Cc1ccc(C(C)C)cc1O [Carvacrol]
IC50 (Jack bean urease): 0.7 ± 0.01 mM

NC(=O)NO [Hydroxyurea]
IC50 (Jack bean urease; isolated compounds, jack bean urease, read-out: Urease inhibitory IC50 (mM) ± SD): 0.78 ± 0.01 mM | Urease inhibitory IC50 (µg/mL) ± SD (Jack bean urease; total extract and fractions, jack bean urease): 59.51 ± 0.01 µg/mL

Cc1ccc(C(C)C)c(O)c1 [Thymol]
IC50 (Jack bean urease): 1.33 ± 0.06 mM

O=C(/C=C/c1ccc(O)cc1)OC[C@H]1O[C@@H](Oc2c(-c3ccc(O)cc3)oc3cc(O)cc(O)c3c2=O)[C@H](O)[C@@H](O)[C@@H]1O [Tiliroside, Kaempferol-3-O-(6''-O-trans-coumaryl) glucoside]
IC50 (Jack bean urease): 0.45 ± 0.05 mM | Lowering of antibiotic MIC values in combination with tiliroside (bacteria): 2-16 fold

penicillin
Inhibition zone, E. coli [2]: 10 mm | Inhibition zone, S. epidermidis [3]: 26 mm | Inhibition zone, S. aureus [4]: 24 mm
